Experimental data reported in patent EP4806900A2, “RAS INHIBITORS” (Revolution Medicines, Inc., priority 2019, dated 2021).
Like-named read-outs stand apart in the source and are kept apart here.

Tests used:
[1] = ester bond, EDCI/HOBt/DIPEA, DCM
SW1573 = conditions: Canon et al., Nature 575:217-223 (2019); cited from earlier work
[2] = tested on: NCI-H358 KRASG12C xenograft; test: In vivo NSCLC K-Ras G12C xenograft model (tumor growth); design: species or system BALB/c nude mice
NSCLC (KRAS G12C) model = test: NSCLC (KRAS G12C) xenograft model, combinations; format: in vivo, mice
[3] = single agents: Compound B 50 mg/kg intravenous twice weekly, cobimetinib […] daily oral

CO[C@@H](C)c1ncc(N2CCN(C(=O)OCc3ccccc3)CC2)cc1-c1c2c3cc(ccc3n1CC(F)(F)F)-c1cccc(c1)C[C@H](NC(=O)OC(C)(C)C)C(=O)N1CCC[C@H](N1)C(=O)OCC(C)(C)C2
ring closure, yield of all isomers ([1]; from CO[C@@H](C)c1ncc(N2CCN(C(=O)OCc3ccccc3)CC2)cc1-c1c(CC(C)(C)CO)c2cc(-c3cccc(C[C@H](NC(=O)OC(C)(C)C)C(=O)N4CCC[C@@H](C(=O)O)N4)c3)ccc2n1CC(F)(F)F, 9.87 mM, 25.0 °C, 12.0 h): 67.9%

CO[C@@H](C)c1ncccc1-c1c2c3cc(ccc3n1CC(F)(F)F)N1CCO[C@@H](C[C@H](NC(=O)OCc3ccccc3)C(=O)N3CCC[C@H](N3)C(=O)OCC(C)(C)C2)C1
ring closure, yield of all isomers ([1]; from CO[C@@H](C)c1ncccc1-c1c(CC(C)(C)CO)c2cc(N3CCO[C@@H](C[C@H](NC(=O)OCc4ccccc4)C(=O)N4CCC[C@@H](C(=O)O)N4)C3)ccc2n1CC(F)(F)F, 11.25 mM, 16.0 h): 74%

C=CC(=O)N1CCN(c2nc(=O)n(-c3c(C)ccnc3C(C)C)c3nc(-c4c(O)cccc4F)c(F)cc23)[C@@H](C)C1 [AMG510]
sensitivity of cell line (SW1573): insensitive

Cc1nc(N2CCC3(CC2)CO[C@@H](C)[C@H]3N)c(CO)nc1-c1cccc(Cl)c1Cl [RMC-4550]
mice with tumor regression (greater than 10% reduction of tumor volume at end of study) ([2]; single agents: Compound C 60 mg/kg intravenous once weekly, SHP2 inhibitor (RMC-4550) 30 mg/kg daily oral): 5 out of 10

O=C(c1ccc(F)c(F)c1Nc1ccc(I)cc1F)N1CC(O)([C@@H]2CCCCN2)C1 [cobimetinib]
tumor response, single agent (FIG. 3A) (NSCLC (KRAS G12C) model; Compound B 50 mg/kg intermittent intravenous or cobimetinib […] daily oral, alone): tumor growth inhibition
tumor regressions at end of study, single agent group (FIG. 3B) (NSCLC (KRAS G12C) model; each single agent): no tumor regressions
effect on tumor growth [2, 3]: tumor growth inhibition
mice with tumor regression (greater than 10% reduction of tumor volume at end of study) [2, 3]: no tumor regressions
